Test results taken from US10336732B2, “1-heterocyclyl isochromanyl compounds and analogs for treating CNS disorders” (Sunovion Pharmaceuticals Inc., priority 2015, dated 2019).

Target: T1, 5-HT2C (Homo sapiens, UniProt P28335)
T1 construct: expressed in transfected cells; host or cells: HEK-293 cells
T1 sequence (P28335 33-458): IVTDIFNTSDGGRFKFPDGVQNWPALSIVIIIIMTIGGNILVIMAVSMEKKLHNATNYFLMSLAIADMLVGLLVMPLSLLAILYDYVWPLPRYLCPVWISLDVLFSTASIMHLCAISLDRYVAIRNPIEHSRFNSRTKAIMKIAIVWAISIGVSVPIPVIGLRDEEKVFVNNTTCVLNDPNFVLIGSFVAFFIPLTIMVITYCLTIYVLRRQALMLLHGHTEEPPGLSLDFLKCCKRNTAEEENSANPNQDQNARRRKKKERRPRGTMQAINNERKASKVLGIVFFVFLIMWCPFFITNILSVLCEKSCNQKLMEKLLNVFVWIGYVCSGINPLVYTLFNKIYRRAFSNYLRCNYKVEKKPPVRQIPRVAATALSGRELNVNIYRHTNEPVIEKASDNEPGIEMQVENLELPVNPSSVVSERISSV
Assay: In vitro radioligand binding assay, 5-HT2C, [3H]mesulergine
Design: concentration or dose not given beside the values
Settings: human recombinant (HEK-293 cells)
Procedure: Certain compounds were tested by in vitro binding assays using standard procedures. […] These receptors and assays are well known to those skilled in the art, as exemplified by the following: Abramovitz, M. et al. (2000), Biochem. Biophys. Acta., 1483: 285-293 (EP4, IP (PGI2)); Aharony, D. et al. (1993), Mol. Pharmacol., 44: 356-363 (NK2); Ardati, A. et al. (1997), Mol. Pharmacol., 51: 816-824 (NOP (ORL1)); Bignon, E. et al. (1999), J. Pharmacol. Exp. Ther. 289: 742-751 (CCK1 (CCKA)); Bloomquist, B. T. et al. (1998), Biochem. Biophys. Res. Commun., 243: 474-479 (GAL2); Brockhaus, M. et al. (1990), Proc. Natl. Acad. Sci. U.S.A., 87: 3127-3131 (TNF-α); Brown, G. B. (1986), J. Neurosci., 6: 2064-2070 (Na+ channel (site 2)); Buchan, K. W. et al. (1994), Brit. J. Pharmacol., 112: 1251-1257 (ETA); Cesura, A. M. et al. (1990), Mol. Pharmacol., 37: 358-366 (MAO-A); Choi, D. S. et al. (1994), FEBS Lett., 352: 393-399 (5-HT2B); Clark, A. F. et al. (1996), Invest. Ophtalmol. Vis. Sci., 37: 805-813 (GR); Couvineau, A. et al. (1985), Biochem. J., 231: 139-143 (VPAC1 (VIP1)); Dorje, F. et al. (1991), J. Pharmacol. Exp. Ther., 256: 727-733 (M1, M2, M3, M4); Ferry, G. et al. (2001), Eur. J. Pharmacol., 417: 77-89 (PPARγ); Fuchs, S. et al. (2001), Mol. Med., 7: 115-124 (ETB); Fuhlendorff, J. et al. (1990), Proc. Natl. Acad. Sci. U.S.A., 87: 182-186 (Y2); Ganapathy M E. et al. (1999), J. Pharmacol. Exp. Ther., 289: 251-260 (sigma (non-selective)); Gopalakrishnan, M. et al. (1996), J. Pharmacol. Exp. Ther., 276: 289-297 (N neuronal α4β2); Greengrass, P. and Bremner, R. (1979), Eur. J. Pharmacol., 55: 323-326 (α1 (non-selective)); Grandy, D. K. et al. (1989), Proc. Natl. Acad. Sci. U.S.A., 86: 9762-9766 (D25); Guard, S. et al. (1993), Eur. J. Pharmacol., 240:177-184 (BB (non-selective)); Heuillet, E. et al. (1993), J. Neurochem., 60: 868-876 (NK1, P2X); Hope, A. G. et al. (1996), Brit. J. Pharmacol., 118: 1237-1245 (5-HT3); Hoyer, D. et al. (1985), Eur. J. Pharmacol., 118: 1-12 (5-HT1B); Hugues, M. et al. (1982), J. Biol. Chem., 257: 2762-2769 (5-HT2A, SKCa channel); Joseph, S. S. et al. (2004), Naun.-Sch. Arch. Pharm., 369: 525-532 (β2); Le, M. T. et al. (2005), Eur. J. Pharmacol., 513: 35-45 (AT1); Le Fur, G. et al. (1983), Life Sci., 33: 449-457) (BZD (peripheral); Lee, Y. M. et al. (1993), J. Biol. Chem., 268: 8164-8169 (CCK2 (CCKB)); Leurs, R. et al. (1994), Brit. J. Pharmacol., 112: 847-854 (H2); Levin, M. C. et al. (2002), J. Biol. Chem., 277: 30429-30435 (11); Lewin, A. H. et al. (1989), Mol. Pharmacol., 35: 189-194 (Cl− channel (GABA-gated)); Lukas, R. J. (1986), J. Neurochem., 46: 1936-1941 (N muscle-type); Luthin, D. R. et al. (1995), Mol. Pharmacol., 47: 307-313; (A2A); Mackenzie, R. G. et al. (1994), Eur. J. Pharmacol., 266: 79-85 (D3); Mulheron, J. G. et al. (1994), J. Biol. Chem., 269: 12954-12962 (5-HT1A); Meng, F. et al. (1993), Proc. Natl. Acad. Sci. U.S.A., 90: 9954-9958 (κ (KOP)); Monsma, F. J. et al. (1993), Mol. Pharmacol., 43: 320-327 (5-HT6); Neote, K. et al. (1993), Cell, 72: 415-425 (CCR1); Pacholczyk, T. et al. (1991), Nature, 350: 350-354 (sst (non-selective, norepinephrine transporter)); Peralta, E. G. et al. (1987), Embo. J., 6: 3923-3929 (M3); Pristupa, Z. B. et al. (1994), Mol. Pharmacol., 45: 125-135 (dopamine transporter); Pruneau, D. et al. (1998), Brit. […]

Row | Compound | 5HT2c percent inhibition of specific binding
1 | Fc1cccc2c1[C@H]([C@@H]1CCCN1)OCC2 [Compound I-1, (S)-2-((R)-8-fluoroisochroman-1-yl)pyrrolidine] | 63%
2 | Fc1ccc2c(c1)CCO[C@H]2[C@@H]1CCCN1 [Compound I-9, (S)-2-((R)-6-fluoroisochroman-1-yl)pyrrolidine] | 61%
3 | Clc1ccc2c(c1)[C@H]([C@@H]1CCCN1)OCC2 [Compound I-29, (S)-2-((R)-7-chloroisochroman-1-yl)pyrrolidine] | 67%
4 | Fc1cccc2c1[C@H]([C@@H]1CCN1)OCC2 [Compound I-83, (S)-2-((R)-8-fluoroisochroman-1-yl)azetidine] | 64%
5 | Fc1ccc2c(c1)CCO[C@H]2[C@@H]1CCN1 [Compound I-90, (S)-2-((R)-6-fluoroisochroman-1-yl)azetidine] | 59%
